From ChEMBL document CHEMBL4651402, “Screening of ~5500 FDA-approved drugs and clinical candidates for anti-SARS-CoV-2 activity” (2021)
Counter-ions that a name gives are not always drawn.

System: SARS-CoV-2
Experiment: microbe, parasite or virus in culture
Details: Severe acute respiratory syndrome coronavirus 2, Vero C1008, 48 h

Structure (SMILES)	IC50	IC50 (read-out: pIC50 (converted))
C[C@H](N)[C@H](O)c1ccc(O)c(O)c1 [LEVONORDEFRIN]	> 20 µM	> 20 µM
CC1(C)C(=O)Nc2ccc(C3=NNC(=O)CC3)cc21 [INDOLIDAN]	> 20 µM	> 20 µM
O[C@H]1[C@H](O)[C@@H](O)[C@H](O)[C@@H](O)[C@H]1O [INOSITOL]	> 20 µM	> 20 µM
S=C(Nc1ccccc1)Nc1nccs1	> 20 µM	> 20 µM
CCC(c1ccccc1)c1c(O)c2ccccc2oc1=O (stereo not drawn) [PHENPROCOUMON]	> 20 µM	> 20 µM
CC(=O)OC1CC2CCC1(C)C2(C)C (stereo not drawn)	> 20 µM	> 20 µM
C[14C](C)(c1ccc(O)cc1)c1ccc(O)cc1	> 20 µM	> 20 µM
O=C1CN(/N=C/c2ncc(-c3ccc(Br)cc3)o2)C(=O)N1 [AZUMOLENE]	> 20 µM	> 20 µM
CCN(CC)CCOC(=O)C(C)(c1ccccc1)c1ccccc1 [APROFENE]	> 20 µM	> 20 µM
CC(=O)O[C@]1(C(C)=O)CCC2C3C[C@H](C)C4=CC(=O)CCC4(C)C3CCC21C (stereo partly drawn)	> 20 µM	> 20 µM
CC(C)Oc1ccc2c(=O)c(-c3ccccc3)coc2c1 [IPRIFLAVONE]	> 20 µM	> 20 µM
O=C(/C=C/c1cccc(S(=O)(=O)Nc2ccccc2)c1)NO [BELINOSTAT]	> 20 µM	> 20 µM
C[C@]12CC[C@@H]3c4ccc(O)cc4CC[C@H]3[C@@H]1CC[C@@H]2O [ESTRADIOL]	> 20 µM	> 20 µM
COC(=O)[C@]12CCC(C)(C)C[C@H]1[C@H]1C(=O)C=C3[C@@]4(C)C=C(C#N)C(=O)C(C)(C)[C@@H]4CC[C@@]3(C)[C@]1(C)CC2 [BARDOXOLONE METHYL]	> 20 µM	> 20 µM
Oc1ccccc1 [PHENOL]	> 20 µM	> 20 µM
COC(=O)/C=C/C(=O)OC [DIMETHYL FUMARATE]	> 20 µM	> 20 µM
COc1cc2c(cc1O)CC[C@@H]1[C@@H]2CC[C@]2(C)[C@@H](O)CC[C@@H]12 [2-METHOXYESTRADIOL]	> 20 µM	> 20 µM
CC(C)/N=C/Nc1ccc(-c2c[nH]cn2)cc1 [MIFENTIDINE]	> 20 µM	> 20 µM
CC1COc2c(N3CCN(C)CC3)c(F)cc3c(=O)c(C(=O)O)cn1c23 (stereo not drawn) [OFLOXACIN]	> 20 µM	> 20 µM
O=C1O[C@@H]([C@@H](O)CO)C(O)=C1O	> 20 µM	> 20 µM
CC1C2Cc3ccc(O)cc3C1(C)CCN2CCc1ccccc1 (stereo not drawn) [PHENAZOCINE]	> 20 µM	> 20 µM
Nc1cccc2c1C(=O)c1cccc(N)c1C2=O	> 20 µM	> 20 µM
COc1ccc(OC)c(C(O)CNC(=O)CN)c1 (stereo not drawn) [MIDODRINE]	> 20 µM	> 20 µM
Cc1nc(Nc2ncc(C(=O)Nc3c(C)cccc3Cl)s2)cc(N2CCN(CCO)CC2)n1 [DASATINIB]	> 20 µM	> 20 µM
CCOC(=O)NC1=C(N2CC2)C(=O)C(NC(=O)OCC)=C(N2CC2)C1=O [DIAZIQUONE]	> 20 µM	> 20 µM
O=C1C(Cl)=C(Cl)C(=O)C(Cl)=C1Cl [CHLORANIL]	> 20 µM	> 20 µM
CCCCCCCCCCCCCCCC(=O)OCC(O)C1OC(=O)C(O)=C1O (stereo not drawn)	> 20 µM	> 20 µM

Structure (SMILES)	IC50	IC50 (read-out: pIC50 (converted))
CCc1ccc(CCOc2ccc(CC3SC(=O)NC3=O)cc2)nc1 (stereo not drawn) [PIOGLITAZONE]	> 20 µM	> 20 µM
CC(=O)OCC(=O)[C@@]1(O)[C@H](OC(C)=O)C[C@H]2[C@@H]3CCC4=CC(=O)C=C[C@]4(C)[C@@]3(F)[C@@H](O)C[C@@]21C [TRIAMCINOLONE DIACETATE]	> 20 µM	> 20 µM
CCN(C(=O)c1c(O)c2c(Cl)cccc2n(C)c1=O)c1ccccc1 [LAQUINIMOD]	> 20 µM	> 20 µM
CC(=O)OC1CC(OC2C(O)CC(OC3C(O)CC(OC4CCC5(C)C(CCC6C5CC(O)C5(C)C(C7=CC(=O)OC7)CCC65O)C4)OC3C)OC2C)OC(C)C1OC1OC(CO)C(O)C(O)C1O (stereo not drawn)	> 20 µM	> 20 µM
CC(O)(CC(=O)O)CC(=O)O [MEGLUTOL]	> 20 µM	> 20 µM
CCCCCCCCCCCC[N+](C)(C)CC(=O)O	> 20 µM	> 20 µM
CC(=O)Oc1ccccc1C(=O)O [ASPIRIN]	> 20 µM	> 20 µM
Oc1c(Cl)cc(Cl)c2cccnc12 [CHLOROXINE]	> 20 µM	> 20 µM
CCC(C/C=C/c1ccccc1)(c1ccccc1)N(C)CC1CC1 (stereo not drawn) [IGMESINE]	> 20 µM	> 20 µM
CC(CNC(=O)c1cccnc1)NC(=O)c1cccnc1 (stereo not drawn)	> 20 µM	> 20 µM
Fc1ccc(C(c2ccc(F)cc2)N2CCN(C/C=C\c3ccccc3)CC2)cc1	> 20 µM	> 20 µM
OC[C@H]1O[C@H](O)C[C@@H](O)[C@@H]1O	> 20 µM	> 20 µM
CN1CC[C@@]23CCCC[C@@H]2C1Cc1ccc(O)cc13	> 20 µM	> 20 µM
Cc1[nH]c2ccccc2c1CCNCc1ccc(/C=C/C(=O)NO)cc1 [PANOBINOSTAT]	> 20 µM	> 20 µM
C/C1=C/C[C@@H](/C(C)=C/c2csc(C)n2)OC(=O)C[C@H](O)C(C)(C)C(=O)[C@H](C)[C@@H](O)[C@@H](C)CCC1 [EPOTHILONE D]	> 20 µM	> 20 µM
Cn1nnnc1SCC1=C(C(=O)O)N2C(=O)[C@@H](NC(=O)[C@H](O)c3ccccc3)[C@H]2SC1 [CEFAMANDOLE]	> 20 µM	> 20 µM
NC(COP(=O)(O)O)C(=O)O (stereo not drawn)	> 20 µM	> 20 µM
Clc1ccc(C(Cn2ccnc2)OCc2ccc(Sc3ccccc3)cc2)c(Cl)c1 (stereo not drawn) [FENTICONAZOLE]	> 20 µM	> 20 µM
C[C@@H]1CCC[C@H](C)N1	> 20 µM	> 20 µM
CCOC(=O)N1CCC(=C2c3ccc(Cl)cc3CCc3cccnc32)CC1 [LORATADINE]	> 20 µM	> 20 µM
COC(=O)C(N)Cc1ccc(O)c(O)c1 (stereo not drawn)	> 20 µM	> 20 µM
CCc1nc(-c2cccc(C)c2)c(-c2ccnc(NC(=O)c3ccccc3)c2)s1 [TAK-715]	> 20 µM	> 20 µM
Clc1cccc(N2CCNCC2)c1 [CHLOROPHENYLPIPERAZINE]	> 20 µM	> 20 µM
Clc1ccc(CO/N=C(\Cn2ccnc2)c2ccc(Cl)cc2Cl)c(Cl)c1 [OXICONAZOLE]	> 20 µM	> 20 µM
CC(C)(O)CNc1nc(Nc2ccnc(C(F)(F)F)c2)nc(-c2cccc(C(F)(F)F)n2)n1 [ENASIDENIB]	> 20 µM	> 20 µM
COc1ccc(C(=O)c2ccccc2)c(O)c1 [OXYBENZONE]	> 20 µM	> 20 µM
C[C@]12CC[C@H](O)CC1=CC[C@@H]1[C@@H]2CC[C@]2(C)C(n3cnc4ccccc43)=CC[C@@H]12 [GALETERONE]	> 20 µM	> 20 µM

Structure (SMILES)	IC50	IC50 (read-out: pIC50 (converted))
Cc1ccccc1OCC(O)CNCCn1cc(C)c(=O)[nH]c1=O (stereo not drawn) [PRIMIDOLOL]	> 20 µM	> 20 µM
CC12CCC3C(CC=C4CC(OS(=O)(=O)O)CCC43C)C1CCC2=O (stereo not drawn)	> 20 µM	> 20 µM
CC(C)CCCCCCCCCCCCCCC(=O)O	> 20 µM	> 20 µM
CC1(C)NC(=O)N(c2ccc([N+](=O)[O-])c(C(F)(F)F)c2)C1=O [NILUTAMIDE]	> 20 µM	> 20 µM
Cc1cc(C(=O)Nc2nc3cccc(Cl)c3n2[C@@H]2CCCCN(C(=O)/C=C/CN(C)C)C2)ccn1 [NAZARTINIB]	> 20 µM	> 20 µM
C[C@H](Cc1ccc2c(c1)OC(C(=O)O)(C(=O)O)O2)NC[C@H](O)c1cccc(Cl)c1	> 20 µM	> 20 µM
CC12CCC3C(CCC4CC(N)C(O)CC43C)C1CCC2=O (stereo not drawn)	> 20 µM	> 20 µM
O=c1n(CCCN2CCN(c3cccc(Cl)c3)CC2)nc2ccccn12 [TRAZODONE]	> 20 µM	> 20 µM
CC12CCC3C4CCC(=O)C=C4CCC3C1CCC2=O (stereo not drawn)	> 20 µM	> 20 µM
CCCCC[C@H](O)/C=C/[C@@H]1[C@H]2C/C(=C/CCCC(=O)O)O[C@H]2C[C@H]1O [EPOPROSTENOL]	> 20 µM	> 20 µM
Cc1ccc(C(=O)c2ccc(CC(=O)O)n2C)cc1 [TOLMETIN]	> 20 µM	> 20 µM
O=C(NCc1ccccc1)OCCO [BURAMATE]	> 20 µM	> 20 µM
C#C[C@]1(O)CC[C@H]2[C@@H]3CCC4=C(CCC(=O)C4)[C@H]3CC[C@@]21C [NORETHYNODREL]	> 20 µM	> 20 µM
C[N+]1(C)CCC[C@H]1C(=O)[O-]	> 20 µM	> 20 µM
CC(C)(C)NCC(O)c1ccccc1Cl (stereo not drawn) [TULOBUTEROL]	> 20 µM	> 20 µM
OC(CCN1CCCCC1)(c1ccccc1)C1CCCC1 (stereo not drawn) [CYCRIMINE]	> 20 µM	> 20 µM
Clc1ccc(CO[C@H](Cn2ccnc2)c2ccc(Cl)cc2Cl)c(Cl)c1	> 20 µM	> 20 µM
O=c1[nH]c2cc(-n3ccnc3)c([N+](=O)[O-])cc2[nH]c1=O [YM-90K]	> 20 µM	> 20 µM
Cc1nc(C2CCCCC2)c(-c2ccc(S(N)(=O)=O)c(F)c2)o1 [TILMACOXIB]	> 20 µM	> 20 µM
CCCCNc1ccc(C(=O)OCCN(C)C)cc1 [TETRACAINE]	> 20 µM	> 20 µM
COc1cc(C(=O)OC(COCCC(C)C)CN2CCOCC2)cc(OC)c1OC (stereo not drawn) [AMOPROXAN]	> 20 µM	> 20 µM
COC(=O)Nc1nc2cc(C(=O)c3cccs3)ccc2[nH]1 [NOCODAZOLE]	> 20 µM	> 20 µM
CC(C)(C)NC[C@H](O)COc1nsnc1N1CCOCC1 [TIMOLOL]	> 20 µM	> 20 µM
CC1Oc2ccccc2CC1N(C)C (stereo not drawn) [TREBENZOMINE]	> 20 µM	> 20 µM
C[C@H](N)[C@H](O)c1cccc(O)c1 [METARAMINOL]	> 20 µM	> 20 µM
